# Assay results from ChEMBL document CHEMBL4680375 (ACS Med Chem Lett, 2021).
# Calls of active or inactive are those of the source. The calls are words filed in the database; no cut-off is given here.
# Experiments:
# [1] = molecular target: T1, NAD-dependent protein deacetylase sirtuin-1 (Homo sapiens) (UniProt Q96EB6); assay: Inhibition of SIRT1 in human SH-SY5Y cells assessed as increase in acetylated p53 level at 10 uM by Western blot analysis; type: cell-based
# T1 sequence (whole entry): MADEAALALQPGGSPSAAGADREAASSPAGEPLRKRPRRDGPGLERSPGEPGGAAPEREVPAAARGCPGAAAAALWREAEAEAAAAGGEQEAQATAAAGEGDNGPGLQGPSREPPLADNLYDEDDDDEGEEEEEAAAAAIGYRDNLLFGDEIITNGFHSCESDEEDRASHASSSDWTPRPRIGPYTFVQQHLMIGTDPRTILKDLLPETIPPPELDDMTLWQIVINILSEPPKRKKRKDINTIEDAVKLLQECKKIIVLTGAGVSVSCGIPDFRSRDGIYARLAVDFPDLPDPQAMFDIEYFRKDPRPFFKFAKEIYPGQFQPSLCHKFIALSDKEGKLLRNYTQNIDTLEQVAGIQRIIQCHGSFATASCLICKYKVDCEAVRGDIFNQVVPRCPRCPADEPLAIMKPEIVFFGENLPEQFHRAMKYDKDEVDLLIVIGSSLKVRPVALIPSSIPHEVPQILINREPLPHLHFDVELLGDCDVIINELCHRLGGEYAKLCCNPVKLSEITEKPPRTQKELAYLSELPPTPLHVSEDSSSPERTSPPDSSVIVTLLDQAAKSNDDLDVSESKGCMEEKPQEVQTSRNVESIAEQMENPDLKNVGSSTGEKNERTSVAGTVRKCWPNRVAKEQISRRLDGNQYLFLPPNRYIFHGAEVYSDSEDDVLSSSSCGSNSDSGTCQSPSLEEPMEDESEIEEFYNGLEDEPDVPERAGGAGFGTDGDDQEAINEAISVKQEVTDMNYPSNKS
# [2] = molecular target: NAD-dependent protein deacylase sirtuin-6 (Homo sapiens, UniProt Q8N6T7); assay: Inhibition of recombinant N-terminal hexa-His-tagged SIRT6 (3 to 318 residues) (unknown origin) expressed in Escherichia coli BL21 (DE3) using RHKKac-AMC as substrate incubated for 2 hrs in presence of NAD+ by fluorescence microplate reader assay
# Sequence of NAD-dependent protein deacylase sirtuin-6 (Q8N6T7 whole entry, the tested form may be a part): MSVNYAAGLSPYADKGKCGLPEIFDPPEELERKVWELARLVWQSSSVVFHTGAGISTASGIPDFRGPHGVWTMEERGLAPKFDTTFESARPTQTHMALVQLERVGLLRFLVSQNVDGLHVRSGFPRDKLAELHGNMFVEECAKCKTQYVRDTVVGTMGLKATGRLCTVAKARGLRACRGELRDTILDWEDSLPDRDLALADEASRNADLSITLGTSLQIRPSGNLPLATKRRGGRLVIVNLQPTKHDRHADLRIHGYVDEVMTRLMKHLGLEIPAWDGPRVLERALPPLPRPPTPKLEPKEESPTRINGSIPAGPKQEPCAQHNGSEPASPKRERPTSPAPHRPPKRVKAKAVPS
# [3] = molecular target: NAD-dependent protein deacylase sirtuin-5, mitochondrial (Homo sapiens, UniProt Q9NXA8); assay: Inhibition of N-terminal 8His-tagged human SIRT5 (34 to 302 residues) expressed in Escherichia coli Rosetta2 (DE3) using Abz-GVLKacAYNO2GY-NH2 peptide as substrate incubated for 30 mins in presence of NAD+ by fluorescence microplate reader assay
# Sequence of NAD-dependent protein deacylase sirtuin-5, mitochondrial (Q9NXA8 whole entry, the tested form may be a part): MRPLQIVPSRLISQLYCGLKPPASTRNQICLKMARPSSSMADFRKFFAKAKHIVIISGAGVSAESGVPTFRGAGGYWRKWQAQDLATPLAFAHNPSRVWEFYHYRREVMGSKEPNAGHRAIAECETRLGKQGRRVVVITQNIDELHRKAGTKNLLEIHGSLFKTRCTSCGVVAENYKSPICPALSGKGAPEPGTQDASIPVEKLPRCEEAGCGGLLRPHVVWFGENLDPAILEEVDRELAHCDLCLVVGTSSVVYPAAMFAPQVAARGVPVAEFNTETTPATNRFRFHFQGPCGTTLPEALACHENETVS
# [4] = molecular target: T2, NAD-dependent protein deacetylase sirtuin-1 (Homo sapiens, UniProt Q96EB6); assay: Inhibition of N-terminal hexa-His-tagged human SIRT1 (156 to 664 residues) expressed in Escherichia coli BL21 (DE3) assessed as deacetylation of Abz-labeled acetyl peptide using Abz-GVLKacAYNO2GY-NH2 peptide as substrate incubated for 30 mins in presence of NAD+ by fluorescence microplate reader assay; conditions: read-out: IC50
# T2 sequence (Q96EB6 whole entry): T1 sequence (whole entry)
# [5] = molecular target: T3, NAD-dependent protein deacetylase sirtuin-2 (Homo sapiens, UniProt Q8IXJ6); assay: Inhibition of GST-fusion tagged human SIRT2 (34 to 356 residues) expressed in Escherichia coli BL21 (DE3) using Abz-GVLKacAYNO2GY-NH2 peptide as substrate incubated for 30 mins in presence of NAD+ by fluorescence microplate reader assay
# T3 sequence (Q8IXJ6 whole entry): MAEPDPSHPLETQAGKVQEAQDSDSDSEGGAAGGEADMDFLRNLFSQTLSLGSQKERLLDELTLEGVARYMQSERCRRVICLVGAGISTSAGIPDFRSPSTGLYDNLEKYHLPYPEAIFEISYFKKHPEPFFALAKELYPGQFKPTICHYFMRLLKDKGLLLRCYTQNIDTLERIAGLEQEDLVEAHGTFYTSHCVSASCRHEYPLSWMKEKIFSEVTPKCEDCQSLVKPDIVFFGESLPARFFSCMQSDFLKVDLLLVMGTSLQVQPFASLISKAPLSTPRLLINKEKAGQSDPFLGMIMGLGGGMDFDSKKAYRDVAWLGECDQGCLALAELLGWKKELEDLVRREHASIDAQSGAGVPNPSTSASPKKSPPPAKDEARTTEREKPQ
# [6] = molecular target: T1, NAD-dependent protein deacetylase sirtuin-1 (Homo sapiens); assay: Inhibition of SIRT1 in human SH-SY5Y cells assessed as increase in acetylated p53 level at 10 uM measured after 72 hrs in presence of ATRA by Western blot analysis; type: cell-based
# [7] = molecular target: T4, NAD-dependent protein deacetylase sirtuin-3, mitochondrial (Homo sapiens, UniProt Q9NTG7); assay: Inhibition of SIRT3 (unknown origin)
# T4 sequence (Q9NTG7 whole entry): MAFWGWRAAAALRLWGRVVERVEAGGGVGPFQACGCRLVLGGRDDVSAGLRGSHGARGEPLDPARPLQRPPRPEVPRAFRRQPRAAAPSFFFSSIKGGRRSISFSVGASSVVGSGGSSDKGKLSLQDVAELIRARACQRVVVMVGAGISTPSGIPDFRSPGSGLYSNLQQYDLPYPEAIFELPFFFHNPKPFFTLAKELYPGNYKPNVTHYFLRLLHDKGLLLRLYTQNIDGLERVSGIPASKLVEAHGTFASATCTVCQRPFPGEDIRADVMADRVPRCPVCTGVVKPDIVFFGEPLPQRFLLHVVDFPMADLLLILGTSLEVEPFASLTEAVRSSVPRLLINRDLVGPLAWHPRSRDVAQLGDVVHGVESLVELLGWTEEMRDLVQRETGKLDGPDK
# [8] = molecular target: T2, NAD-dependent protein deacetylase sirtuin-1; assay: Inhibition of His-tagged SIRT1 (unknown origin) expressed in Escherichia coli codon plus (DE3) using acetylated p53 as substrate
# [9] = molecular target: T1, NAD-dependent protein deacetylase sirtuin-1 (Homo sapiens); assay: Inhibition of SIRT1 in human SH-SY5Y cells assessed as increase in ratio of acetylated p53 to p53 level by Western blot analysis; type: cell-based; conditions: dose 0.1-50 µM
# [10] = molecular target: NAD-dependent protein deacetylase sirtuin-1 (Homo sapiens, UniProt Q96EB6, N346A); assay: Inhibition of N-terminal hexa-His-tagged human SIRT1 N346A mutant (156 to 664 residues) expressed in Escherichia coli BL21 (DE3) assessed as dissociation equilibrium constant using Abz-GVLKacAYNO2GY-NH2 as substrate in presence of varying level of NAD+ by Lineweaver-burk plot analysis
# Sequence of NAD-dependent protein deacetylase sirtuin-1 (Homo sapiens, UniProt Q96EB6, N346A) (Q96EB6 2-747 N346A limits assumed): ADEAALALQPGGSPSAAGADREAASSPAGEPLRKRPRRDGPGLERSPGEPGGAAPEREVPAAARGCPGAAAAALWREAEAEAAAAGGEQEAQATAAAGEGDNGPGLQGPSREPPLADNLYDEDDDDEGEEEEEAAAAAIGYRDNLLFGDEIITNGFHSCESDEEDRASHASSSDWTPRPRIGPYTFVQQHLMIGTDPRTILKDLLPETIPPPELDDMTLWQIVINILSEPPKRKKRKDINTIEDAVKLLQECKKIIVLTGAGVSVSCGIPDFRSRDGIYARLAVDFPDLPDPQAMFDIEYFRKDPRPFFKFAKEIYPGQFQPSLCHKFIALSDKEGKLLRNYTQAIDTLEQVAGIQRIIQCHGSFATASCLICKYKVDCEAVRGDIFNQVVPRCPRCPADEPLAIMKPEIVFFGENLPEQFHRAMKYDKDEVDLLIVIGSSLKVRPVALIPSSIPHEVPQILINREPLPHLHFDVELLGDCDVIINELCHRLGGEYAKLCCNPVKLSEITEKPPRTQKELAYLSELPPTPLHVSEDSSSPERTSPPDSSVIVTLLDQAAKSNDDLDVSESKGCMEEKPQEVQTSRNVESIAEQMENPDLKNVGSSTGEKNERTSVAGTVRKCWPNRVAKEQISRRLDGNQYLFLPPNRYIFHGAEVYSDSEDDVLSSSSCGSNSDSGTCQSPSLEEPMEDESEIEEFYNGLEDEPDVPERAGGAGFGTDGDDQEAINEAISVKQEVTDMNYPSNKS
# [11] = molecular target: T2, NAD-dependent protein deacetylase sirtuin-1; assay: Inhibition of wild type N-terminal hexa-His-tagged human SIRT1 (156 to 664 residues) expressed in Escherichia coli BL21 (DE3) assessed as dissociation equilibrium constant using Abz-GVLKacAYNO2GY-NH2 as substrate in presence of varying level of NAD+ by Lineweaver-burk plot analysis
# [12] = molecular target: NAD-dependent protein deacetylase sirtuin-1 (Homo sapiens, UniProt Q96EB6, F414A); assay: Inhibition of N-terminal hexa-His-tagged human SIRT1 F414A mutant (156 to 664 residues) expressed in Escherichia coli BL21 (DE3) assessed as dissociation equilibrium constant using Abz-GVLKacAYNO2GY-NH2 as substrate in presence of varying level of NAD+ by Lineweaver-burk plot analysis
# Sequence of NAD-dependent protein deacetylase sirtuin-1 (Homo sapiens, UniProt Q96EB6, F414A) (Q96EB6 2-747 F414A limits assumed): as the sequence (Q96EB6 2-747 N346A limits assumed) above, with A345N, F413A counted along it
# [13] = molecular target: T1, NAD-dependent protein deacetylase sirtuin-1 (Homo sapiens); assay: Non-competitive inhibition of N-terminal hexa-His-tagged human SIRT1 (156 to 664 residues) expressed in Escherichia coli BL21 (DE3) assessed as decrease in initial velocity V0 at 0.47 to 1.98 uM using Abz-GVLKacAYNO2GY-NH2 as substrate in presence of varying level of NAD+ by Lineweaver-burk plot analysis; conditions: dose 0.47-1.98 µM
# [14] = molecular target: NAD-dependent protein deacetylase sirtuin-1 (Homo sapiens, UniProt Q96EB6, I347A); assay: Inhibition of N-terminal hexa-His-tagged human SIRT1 I347A mutant (156 to 664 residues) expressed in Escherichia coli BL21 (DE3) assessed as dissociation equilibrium constant using Abz-GVLKacAYNO2GY-NH2 as substrate in presence of varying level of NAD+ by Lineweaver-burk plot analysis
# Sequence of NAD-dependent protein deacetylase sirtuin-1 (Homo sapiens, UniProt Q96EB6, I347A) (Q96EB6 2-747 I347A limits assumed): as the sequence (Q96EB6 2-747 N346A limits assumed) above, with A345N, I346A counted along it
# [15] = molecular target: T1, NAD-dependent protein deacetylase sirtuin-1 (Homo sapiens); assay: Non-competitive inhibition of N-terminal hexa-His-tagged human SIRT1 (156 to 664 residues) expressed in Escherichia coli BL21 (DE3) assessed as effect on Km at 0.47 to 1.98 uM using Abz-GVLKacAYNO2GY-NH2 as substrate in presence of varying level of NAD+ by Lineweaver-burk plot analysis; conditions: dose 0.47-1.98 µM
# [16] = molecular target: T1, NAD-dependent protein deacetylase sirtuin-1 (Homo sapiens); assay: Mixed-type inhibition of N-terminal hexa-His-tagged human SIRT1 (156 to 664 residues) expressed in Escherichia coli BL21 (DE3) assessed as decrease in initial velocity V0 at 0.47 to 1.98 uM using varying levels Abz-GVLKacAYNO2GY-NH2 peptide as substrate in presence of NAD+ by Lineweaver-burk plot analysis; conditions: dose 0.47-1.98 µM
# [17] = molecular target: NAD-dependent protein deacetylase sirtuin-1 (Homo sapiens, UniProt Q96EB6, F273L); assay: Inhibition of N-terminal hexa-His-tagged human SIRT1 F273L mutant (156 to 664 residues) expressed in Escherichia coli BL21 (DE3) assessed as dissociation equilibrium constant using Abz-GVLKacAYNO2GY-NH2 as substrate in presence of varying level of NAD+ by Lineweaver-burk plot analysis
# Sequence of NAD-dependent protein deacetylase sirtuin-1 (Homo sapiens, UniProt Q96EB6, F273L) (Q96EB6 2-747 F273L limits assumed): as the sequence (Q96EB6 2-747 N346A limits assumed) above, with F272L, A345N counted along it
# [18] = Inhibition of N-terminal hexa-His-tagged human SIRT1 D348A mutant (156 to 664 residues) expressed in Escherichia coli BL21 (DE3) assessed as dissociation equilibrium constant using Abz-GVLKacAYNO2GY-NH2 as substrate in presence of varying level of NAD+ by Lineweaver-burk plot analysis
# [19] = molecular target: T1, NAD-dependent protein deacetylase sirtuin-1 (Homo sapiens); assay: Mixed-type inhibition of N-terminal hexa-His-tagged human SIRT1 (156 to 664 residues) expressed in Escherichia coli BL21 (DE3) assessed as decrease in Km at 0.47 to 1.98 uM using varying levels Abz-GVLKacAYNO2GY-NH2 peptide as substrate in presence of NAD+ by Lineweaver-burk plot analysis; conditions: dose 0.47-1.98 µM
Structure (SMILES),IC50 [2],IC50 ([3]; read-out: IC50),IC50 [4],IC50 [5],increase in acetylated p53 level (qualitative) [6],other results
CC1=C(/C=C/C(C)=C/C=C/C(C)=C/C(=O)O)C(C)(C)CCC1,,,,,,inhibition [1]: inactive
COc1cc(C=C2C(=O)OC(c3ccccc3)OC2=O)cc(I)c1O (stereo unspecified),Not Active,22.4 µM,0.89 µM,49.4 µM,Active,
CC1=CCC(C(=O)/N=C2\CC=C(S(=O)(=O)O)c3cc(S(=O)(=O)O)cc(S(=O)(=O)O)c32)=C/C1=N/C(=O)C1=CC=C/C(=N\C(=O)/N=C2\C=CC=C(C(=O)/N=C3/CC(C(=O)/N=C4\CC=C(S(=O)(=O)O)c5cc(S(=O)(=O)O)cc(S(=O)(=O)O)c54)=CC=C3C)C2)C1,,,,,,IC50 [7]: 22 µM
CCC(Sc1nnc2c(n1)[nH]c1ccccc12)C(=O)N1c2ccccc2Sc2ccccc21 (stereo unspecified),,,,,,IC50 [8]: 0.1 µM
O=C1OC(c2ccccc2)OC(=O)C1=Cc1cc(I)c(O)c(I)c1 (stereo unspecified),Not Active,4.98 µM,0.46 µM,52.2 µM,Active,inhibition [9]: Dose-dependent effect
O=C1OC(c2ccccc2)OC(=O)C1=Cc1cc(Cl)c(O)c(Cl)c1 (stereo unspecified),Not Active,37.4 µM,1.2 µM,56.4 µM,Active,
COc1cc(C=C2C(=O)OC(c3ccccc3)OC2=O)cc(Br)c1O (stereo unspecified),Not Active,19.8 µM,1.31 µM,54 µM,Active,Ki [10]: 1.94 µM; Ki [11]: 0.1 µM; Ki [12]: 18.2 µM; inhibition [13]: Active; Ki [14]: 0.71 µM; inhibition [15]: Active; inhibition [16]: Active; Ki [17]: 0.65 µM; Ki [18]: 7.06 µM; inhibition [19]: Active
NC(=O)[C@@H]1CCCc2c1[nH]c1ccc(Cl)cc21,Not Active,,,,,IC50 [3]: Not Active
